“Also recorded” adds a separate entry of the source.
Columns and labels:
washed human platelets = assay: I-BOP evoked human platelet aggregation in vitro with washed platelets; type: cell-based; conditions: for IC50: washed human platelets, 5 ng I-BOP, compounds are methyl esters, read-out: IC50, inhibition of I-BOP evoked human platelet aggregation
Description: Washed human platelets were prepared as previously described (Pace-Asciak et al., 2002). The aggregation of platelets was carried out in a conventional 4-well aggregometer with stirring of the suspension maintained at 37° C. The platelet suspension was caused to aggregate with a thromboxane stable analog, I-BOP. The isolated enantiomer compounds and their respective racemates, PBT-3 and PBT-4, were added at various concentrations to cuvettes containing 375×10^6 platelets/ml, 1 min prior to the addition of 5 ng I-BOP (Cayman Chemicals, Ann Arbor, Mich.). Aggregation was monitored for an additional 5 min.

[1] = tested on: human leukemic K562 cells; assay: Inhibition of 3H-methyl thymidine incorporation (cell proliferation) in K562 cells; type: cell-based; conditions: 6 h treatment; compounds are methyl esters
Description: The human leukemic K562 cell line was established as previously reported (Qiao et al., 2003). Cells were maintained as suspension cultures in RPMI 1640 medium supplemented with 100 1.1/ml penicillin G, 100 μg/ml streptomycin, 10% (v/v) […] in a humidified atmosphere of 5% CO2 at 37° C. Cell viability was assessed by the exclusion of Trypan blue. Incorporation of ^3H-methyl thymidine into cell DNA was used as an assay for cell proliferation. Cells ([…]) were starved for 12 h, and were subsequently treated with the test compounds. Compounds A, B, C and D were made up at various concentrations in DMSO ([…] A, B, C and D. Concentrations were doubled for racemates PBT-3 and PBT-4) and 1 of these solutions was added/ml volume of cells. Cells were suspended in RPMI 1640 medium. At 6 h post-treatment at 37° C. the cells were fixed and denatured essentially as described in Qiao et al. (2003), harvested and passed through Whatman GF/C glass filters. The filters were washed and counted for radioactivity.

[2] = tested on: Caspase-3 cleavage in K562 cells; assay: Caspase-3 cleavage in K562 cells, Western blot; type: cell-based, human; conditions: 10 uM, 6 h; for Cleavage of caspase-3: FIG. 7
Description: Cell culture: Human leukemia K562 cells, obtained from ATCC (American Type Culture Collection), were maintained in RPMI 1640 medium containing 100 units/ml penicillin G, 100 μg/ml streptomycin, 10% (v/v) fetal calf serum in a humidified atmosphere with 5% CO2 at 37° C. The ability of the cells to exclude trypan Blue dye was used to assess cell viability.
Cell treatment: K562 cells were stored in 0.5% FBS for 15 min before the experiment. The cells, 6×10^5, were treated with DMSO as vehicle, or with PBT-3, PBT-4, or compounds A, B, C and D at 10 uM/dish (8 ml). Gleevec™ (STI) was used at 5 μM/dish. All experiments were without FBS and treatment lasted 6 h at 37° C. Treatment was terminated by washing the cells with ice-cold PBS buffer by centrifugation at 500×g for 5 min. Cells were lysed in buffer containing 20 mM Tris-HCl buffer, pH 7.4, 150 NaCl, 1 mM EDTA, 1 mM EGTA, 1% Triton X-100 2.5 mM sodium pyrophosphate, 1 mM beta-glycerophosphate, 1 mM sodium orthovanadate, 1 mM PMSF and 1 μM leupeptin/1 μM Aprotinin/1 μM pepstain A, on ice for 30 min. The lysates were clarified by centrifugation at 15,000×g for 15 min at 4° C. Lysates were subjected to protein assay (BCA, Pierce) and kept at −80° C.
Western blot: Thirty micrograms of protein from each sample were taken, and SDS-PAGE sample loading buffer was added. The mixture was boiled for 5 min. After centrifugation, the samples were loaded onto 15% SDS-PAGE gel and the gel was run (BioRad Protein II) for 2-3 h at 20 mA. The protein was transferred to a Trans-blot Nitrocellulose membrane (Millipore). Protein bands on the membranes were checked visually with Ponceau S-staining to ensure equivalent protein load/transfer comparing different samples. Membranes were blocked with 5% non-fat dry milk in PBS containing 0.5% Tween-20 for 1 h at room temperature, and then incubated with 1:1000 dilution of anti-caspase-3 antibody (BD Transduction Laboratories, Mississauga, Canada) overnight at 4° C. Secondary antibody of horseradish peroxidase anti-mouse antibody was used at 1:2000 dilution. Bound antibodies were detected by using enhanced chemilluminescence (ECL kit, Amersham Pharmacia Biotech) and the membranes were exposed to Hyper film for ECL detection. The same membrane was stripped by placing in buffer containing 62.5 mM Tris-HCl, pH 6.8/2% SDS/100 mM beta-mercaptoethanol at 50° C. for 30 min. The membrane was washed 3 times with PBS containing 0.5% Tween-20. The membrane was blocked by PBS buffer containing 0.5% Tween-20 and 5% skim milk. The anti-tubulin antibody (Santa Cruz, Calif.) was diluted 1:1000 and membrane analyzed by ECL as described above.

[3] = target: T1, Ga14-DBD-PPAR gamma-LBD fusion protein (Homo sapiens, UniProt P37231); assay: PPAR gamma transactivation assay (Gal4-PPAR gamma LBD / UASx4-TK-luc reporter); type: cell-based
T1 construct: expressed in transfected cells; host or cells: mouse embryonic fibroblasts (MEFs) or ME3 cells
T1 sequence (P37231 238-503 limits assumed): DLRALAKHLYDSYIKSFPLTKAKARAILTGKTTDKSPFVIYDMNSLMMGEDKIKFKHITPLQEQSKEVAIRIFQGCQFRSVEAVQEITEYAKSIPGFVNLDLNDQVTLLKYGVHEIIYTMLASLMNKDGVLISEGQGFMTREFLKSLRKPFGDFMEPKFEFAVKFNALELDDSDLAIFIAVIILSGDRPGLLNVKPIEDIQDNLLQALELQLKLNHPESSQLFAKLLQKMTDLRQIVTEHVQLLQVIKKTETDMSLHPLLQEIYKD
From the text: The UASx4-TK-luc reporter construct (where UAS refers to “upstream activator sequence”) contains four Ga14-responsive elements. The plasmid Ga14-PPAR gammaLBD encodes a Ga14-DBD-PPAR gamma-LBD fusion protein (i.e. the DNA-binding domain, DBD, of Ga14 fused to the ligand-binding domain, LBD, of PPAR gamma) capable of transactivating the UASx4-TK-luc reporter plasmid by binding to the UAS. The CMV-beta-galactosidase plasmid (where CMV is cytomegalovirus) was used for normalization of experimental values.
The cells were replated, typically in 24 well plates, so that at the time of transfection the cells were 50-70% confluent.
Briefly, per well in a 24 well plate, UASx4TKIuc (0.2 microg) Ga14-PPAR gammaLBD (or pM-hPPAR gamma-LBD; 0.1 microg) and CMV-beta-galactosidase (0.05 microg) in 30 μL DMEM (free of serum and antibiotics) was mixed with 30 microL DMEM (free of serum and antibiotics) containing 1 microL metafectenein. The mixture was incubated at room temperature for 20 min to allow formation of nucleic acid-lipid complexes and then approximately 60 micros was added to each well containing the 50-70% confluent cells. […] Cells were harvested after 12-24 hours and luciferase and beta-galactosidase activities were measured according to standard protocols.
Each experiment was carried out with triplicate samples with 0.1, 1 or 10 microM racemate or purified enantiomer.

IC50 (washed human platelets) [nM] | IC50 [1] [nM] | PPAR gamma transactivation, result in words [3] | PPAR Activation as % of positive control (Avandia) ([3]; Experiment 1, 0.1 microM) | PPAR Activation as % of positive control (Avandia) ([3]; Experiment 1, 1 microM) | PPAR Activation as % of positive control (Avandia) ([3]; Experiment 2, 0.1 microM) | PPAR Activation as % of positive control (Avandia) ([3]; Experiment 2, 1 microM) | PPAR Activation as % of positive control (Avandia) ([3]; Experiment 2, 10 microM) | PPAR Activation as % of positive control (Avandia) ([3]; Experiment 3, 0.1 microM) | PPAR Activation as % of positive control (Avandia) ([3]; Experiment 3, 1 microM) | PPAR Activation as % of positive control (Avandia) ([3]; Experiment 3, 10 microM) | PPAR Activation as % of positive control (Avandia) ([3]; 10 microM racemate, Table 3) | Structure (SMILES) | Cleavage of caspase-3 [2] | PPAR Activation as % of positive control (Avandia) ([3]; Experiment 1, 10 microM) | Potency relative to Compound B, inhibition of platelet aggregation (washed human platelets; I-BOP evoked aggregation) | Potency relative to racemic PBT-3, inhibition of platelet aggregation (washed human platelets; I-BOP evoked aggregation) | Potency relative to racemic PBT-3, inhibition of platelet aggregation (washed human platelets; I-BOP evoked aggregation, listed as compound A) [fold] | Cleavage of caspase-3 compared with Compound B [2]
54 ± 9 | 4600 | – | 11 +/− 2 % of positive control (Avandia) | 15 +/− 2 % of positive control (Avandia) | 4 +/− 1 % of positive control (Avandia) | 8 +/− 1 % of positive control (Avandia) | 41 +/− 5 % of positive control (Avandia) | 8 +/− 2 % of positive control (Avandia) | 18 +/− 4 % of positive control (Avandia) | 32 +/− 4 % of positive control (Avandia) | 18 +/− 1 % of positive control (Avandia) | CCCCC/C=C\CC1CC1C(O)/C=C\C/C=C\CCCC(=O)OC (centres unmarked) [PBT-3, 10-hydroxy-11,12-cyclopropyl-eicosa-5Z,8Z,14Z-trienoic acid methyl ester, reference compound] | increased cleavage of caspase-3 | 42 +/− 8 % of positive control (Avandia) | – | – | – | –
79 ± 17 | 4900 | – | 13 +/− 2 % of positive control (Avandia) | 13 +/− 3 % of positive control (Avandia) | 4 +/− 1 % of positive control (Avandia) | 7 +/− 1 % of positive control (Avandia) | 32 +/− 1 % of positive control (Avandia) | 7 +/− 1 % of positive control (Avandia) | 15 +/− 7 % of positive control (Avandia) | 33 +/− 8 % of positive control (Avandia) | 19 +/− 1 % of positive control (Avandia) | CCCCC/C=C\CC1CC1C(O)/C=C\C/C=C\CCCC(=O)OC (centres unmarked) [PBT-4, 10-hydroxy-11,12-cyclopropyl-eicosa-5Z,8Z,14Z-trienoic acid methyl ester, reference compound] | increased cleavage of caspase-3 | 60 +/− 9 % of positive control (Avandia) | – | – | – | –
27 ± 7 | 3600 | no apparent difference | 11 +/− 4 % of positive control (Avandia) | 14 +/− 4 % of positive control (Avandia) | 4 +/− 1 % of positive control (Avandia) | 11 +/− 1 % of positive control (Avandia) | 34 +/− 1 % of positive control (Avandia) | 8 +/− 2 % of positive control (Avandia) | 12 +/− 1 % of positive control (Avandia) | 27 +/− 5 % of positive control (Avandia) | – | CCCCC/C=C\C[C@H]1C[C@@H]1[C@H](O)/C=C\C/C=C\CCCC(=O)OC [Compound A, 10R-hydroxy-11S,12S-cyclopropyl-eicosa-5Z,8Z,14Z-trienoic acid methyl ester] | increased cleavage of caspase-3 | 63 +/− 34 % of positive control (Avandia) | nearly four times as active; also recorded: about four times more potent | twice as potent | 2 | more active than Compound B

Structure (SMILES) | IC50 (washed human platelets) [nM] | IC50 [1] [nM] | PPAR gamma transactivation, result in words [3] | PPAR Activation as % of positive control (Avandia) ([3]; Experiment 1, 0.1 microM) | PPAR Activation as % of positive control (Avandia) ([3]; Experiment 1, 1 microM) | PPAR Activation as % of positive control (Avandia) ([3]; Experiment 2, 0.1 microM) | PPAR Activation as % of positive control (Avandia) ([3]; Experiment 2, 1 microM) | PPAR Activation as % of positive control (Avandia) ([3]; Experiment 2, 10 microM) | PPAR Activation as % of positive control (Avandia) ([3]; Experiment 3, 0.1 microM) | PPAR Activation as % of positive control (Avandia) ([3]; Experiment 3, 1 microM) | PPAR Activation as % of positive control (Avandia) ([3]; Experiment 3, 10 microM) | PPAR Activation as % of positive control (Avandia) ([3]; 10 microM racemate, Table 3) | Cleavage of caspase-3 [2] | PPAR Activation as % of positive control (Avandia) ([3]; Experiment 1, 10 microM) | Potency relative to Compound B, inhibition of platelet aggregation (washed human platelets; I-BOP evoked aggregation) | Potency relative to racemic PBT-3, inhibition of platelet aggregation (washed human platelets; I-BOP evoked aggregation) | Potency relative to racemic PBT-3, inhibition of platelet aggregation (washed human platelets; I-BOP evoked aggregation, listed as compound A) [fold] | Cleavage of caspase-3 compared with Compound B [2]
CCCCC/C=C\CC1CC1C(O)/C=C\C/C=C\CCCC(=O)OC (stereo not drawn) [Compound B, 10S-hydroxy-11R,12R-cyclopropyl-eicosa-5Z,8Z,14Z-trienoic acid methyl ester] | 101 ± 27 | 7600 | no apparent difference | 11 +/− 3 % of positive control (Avandia) | 21 +/− 3 % of positive control (Avandia) | 4 +/− 1 % of positive control (Avandia) | 10 +/− 1 % of positive control (Avandia) | 35 +/− 11 % of positive control (Avandia) | 10 +/− 3 % of positive control (Avandia) | 16 +/− 6 % of positive control (Avandia) | 30 +/− 10 % of positive control (Avandia) | – | increased cleavage of caspase-3 | 44 +/− 11 % of positive control (Avandia) | – | – | – | –
